Experimental data reported in ChEMBL document CHEMBL1140393, “Neamine dimers targeting the HIV-1 TAR RNA” (Bioorg Med Chem Lett, 2005).

Key:
Design in all cases: species or system Homo sapiens
[1] = Effect towards transactivation responsive RNA-binding protein at pH 7.5, (10 mM Tris-HCl, 150 mM KCl)by using fluorimetric competition assay
[2] = Effect against transactivation responsive RNA-binding protein at pH 7.4 (50 mM Tris-HCl […]) in fluorimetric competition assay
[3] = Effect against trans-activation responsive RNA-binding protein at pH 7.4 (50 mM Tris-HCl and 20 mM KCl) in fluorimetric competition assay

Compound	IC50 [1] [nM]	IC50 [2] [nM]	IC50 [3] [nM]
CN(CC(=O)NCCCCCCO[C@@H]1[C@H](O)[C@H](N)C[C@@H](N)[C@H]1O[C@H]1O[C@@H](CN)[C@@H](O)[C@H](O)[C@@H]1N)CC(=O)NCCCCCCO[C@@H]1[C@H](O)[C@H](N)C[C@@H](N)[C@H]1O[C@H]1O[C@@H](CN)[C@@H](O)[C@H](O)[C@@H]1N	1000	150	–
CN(CC(=O)NCCCCCCO[C@H]1[C@H](O)[C@H](N)[C@@H](O[C@H]2[C@H](O)[C@H](O)[C@H](N)C[C@H]2N)O[C@H]1CN)CC(=O)NCCCCCCO[C@H]1[C@H](O)[C@H](N)[C@@H](O[C@H]2[C@H](O)[C@H](O)[C@H](N)C[C@H]2N)O[C@H]1CN	50	330	–
NCC1OC(OC2C(N)CC(N)C(O)C2O)C(N)C(O)C1OCCCCCCNC(=O)CCC(=O)NCCCCCCOC1C(CN)OC(OC2C(N)CC(N)C(O)C2O)C(N)C1O (configuration not stated)	480	150	–
NCC1OC(OC2C(N)CC(N)C(O)C2OCCCCCCNC(=O)CCC(=O)NCCCCCCOC2C(O)C(N)CC(N)C2OC2OC(CN)C(O)C(O)C2N)C(N)C(O)C1O (configuration not stated)	900	400	–
NC[C@@H]1O[C@H](O[C@H]2[C@@H](O)[C@H](O[C@@H]3[C@@H](O)[C@H](N)C[C@H](N)[C@H]3O[C@H]3O[C@H](CN)[C@@H](O)[C@H](O)[C@H]3N)O[C@@H]2CO)[C@H](N)[C@@H](O)[C@@H]1O [FRAMYCETIN]	35000	7000	–
NC[C@H]1O[C@H](O[C@H]2[C@H](O)[C@@H](O)[C@H](N)C[C@@H]2N)[C@H](N)[C@@H](O)[C@@H]1O [NEAMINE]	40000	–	10000
